The record followed here is patent US8871753B2, “Macrocyclic compounds and their use as kinase inhibitors” (Incyte Corporation, priority 2008, dated 2014).

Structures are written as SMILES. Where a name gives a salt, the structure may show the parent alone. Read-outs that look alike come from different tables or passages of the source.

Holding throughout (type): biochemical
Assay [1] addresses T1, human JAK1 (a.a. 837-1142) (Homo sapiens, UniProt P23458).
T1 construct: human JAK1 (a.a. 837-1142); His tag (N); made in house; host or cells: insect cells (baculovirus)
Put plainly: In vitro JAK kinase assay (HTRF, phosphorylation of a biotinylated peptide), JAK1. The note with it: read-out: JAK1 IC50. The essentials: (§1)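 Kinase reactions ran at room temperature for 1 h with ATP matched per isoform (JAK1 90 μM, JAK2 30 μM, JAK3 3 μM). After an EDTA stop, the phosphorylated biotin-peptide was read by HTRF using Eu-Py20 and SA-APC after 40 min binding.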

Assay [2] deals with T2, human JAK3 (a.a. 781-1124) (Homo sapiens, UniProt P52333).
T2 construct: JAK3 (a.a. 781-1124); His tag (N); made in house; host or cells: insect cells (baculovirus)
T2 sequence (P52333 781-1124): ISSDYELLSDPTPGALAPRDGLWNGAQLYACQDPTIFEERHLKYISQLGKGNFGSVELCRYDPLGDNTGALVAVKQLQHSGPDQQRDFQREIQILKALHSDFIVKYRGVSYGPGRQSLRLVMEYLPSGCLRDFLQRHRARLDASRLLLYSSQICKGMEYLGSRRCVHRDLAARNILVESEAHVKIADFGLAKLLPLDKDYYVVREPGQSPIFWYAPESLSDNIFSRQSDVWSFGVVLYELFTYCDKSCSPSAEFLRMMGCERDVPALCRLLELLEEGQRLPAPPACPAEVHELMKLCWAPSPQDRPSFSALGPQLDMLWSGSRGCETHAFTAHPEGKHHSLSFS
Put plainly: In vitro JAK kinase assay (HTRF, phosphorylation of a biotinylated peptide), JAK3. The gist of the method: as §1
A general note: Time-resolved FRET reads energy transfer from a long-lived donor to a nearby acceptor.

A further assay has as its target TYK2 (Homo sapiens, UniProt P29597). The assay can be described thus: TYK2 kinase inhibition (Table A1).
For assay [3], the target named is T3, Recombinant Human Anaplastic Lymphoma Kinase (Homo sapiens, UniProt Q9UM73).
T3 construct: purchased Invitrogen, Carlsbad, Calif
T3 sequence (Q9UM73 19-1620): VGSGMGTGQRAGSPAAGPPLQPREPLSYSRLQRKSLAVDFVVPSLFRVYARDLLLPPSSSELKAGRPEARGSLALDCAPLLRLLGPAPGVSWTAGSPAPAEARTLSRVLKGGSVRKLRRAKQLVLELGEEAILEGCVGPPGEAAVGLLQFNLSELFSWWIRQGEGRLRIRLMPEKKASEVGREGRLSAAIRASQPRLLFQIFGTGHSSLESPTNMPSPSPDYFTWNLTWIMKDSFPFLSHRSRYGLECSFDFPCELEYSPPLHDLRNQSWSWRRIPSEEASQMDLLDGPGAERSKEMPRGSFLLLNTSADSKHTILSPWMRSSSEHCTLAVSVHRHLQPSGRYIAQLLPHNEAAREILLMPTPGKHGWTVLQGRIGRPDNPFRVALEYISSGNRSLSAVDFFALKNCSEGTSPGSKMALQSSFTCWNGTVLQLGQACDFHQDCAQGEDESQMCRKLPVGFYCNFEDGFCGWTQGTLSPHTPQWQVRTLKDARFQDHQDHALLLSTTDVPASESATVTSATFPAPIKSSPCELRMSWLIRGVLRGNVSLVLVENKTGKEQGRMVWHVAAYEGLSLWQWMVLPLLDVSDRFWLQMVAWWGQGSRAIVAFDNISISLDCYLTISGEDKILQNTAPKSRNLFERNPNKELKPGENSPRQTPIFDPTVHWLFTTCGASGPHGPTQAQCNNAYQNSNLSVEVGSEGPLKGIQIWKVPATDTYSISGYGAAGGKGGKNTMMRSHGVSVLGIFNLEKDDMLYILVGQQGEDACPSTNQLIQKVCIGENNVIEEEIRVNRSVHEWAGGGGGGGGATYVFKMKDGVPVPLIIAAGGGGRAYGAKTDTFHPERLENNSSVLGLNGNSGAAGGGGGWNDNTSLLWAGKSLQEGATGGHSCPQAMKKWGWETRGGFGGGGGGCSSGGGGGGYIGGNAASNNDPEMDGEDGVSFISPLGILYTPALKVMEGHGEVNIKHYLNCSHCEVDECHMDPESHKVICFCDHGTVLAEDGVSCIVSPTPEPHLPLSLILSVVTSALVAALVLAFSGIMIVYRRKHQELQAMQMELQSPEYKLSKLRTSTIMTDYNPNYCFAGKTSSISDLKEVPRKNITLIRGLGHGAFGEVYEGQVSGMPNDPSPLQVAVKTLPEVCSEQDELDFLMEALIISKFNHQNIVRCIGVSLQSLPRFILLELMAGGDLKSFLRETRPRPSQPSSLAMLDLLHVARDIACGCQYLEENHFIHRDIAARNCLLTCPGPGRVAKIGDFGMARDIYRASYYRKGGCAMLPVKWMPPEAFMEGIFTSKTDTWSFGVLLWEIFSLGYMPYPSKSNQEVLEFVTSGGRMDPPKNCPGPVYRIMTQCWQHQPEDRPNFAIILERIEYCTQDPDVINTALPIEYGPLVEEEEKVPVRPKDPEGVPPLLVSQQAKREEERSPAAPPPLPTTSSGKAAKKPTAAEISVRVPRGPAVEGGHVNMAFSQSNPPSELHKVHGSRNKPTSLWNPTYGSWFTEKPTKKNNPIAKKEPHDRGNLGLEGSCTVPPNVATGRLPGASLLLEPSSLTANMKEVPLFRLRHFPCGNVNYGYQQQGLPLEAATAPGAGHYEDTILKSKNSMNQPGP
Put plainly: ALK HTRF kinase assay. The gist of the method: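 IC50 was obtained from a logistic fit of signal versus log inhibitor concentration, using pre- and post-transition baselines and a Hill slope. The signal reported tyrosine phosphorylation of a biotinylated peptide by recombinant human kinase, detected as Eu-to-APC energy transfer.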

Assay [4] deals with T4, human JAK2 (a.a. 828-1132) (Homo sapiens, UniProt O60674).
T4 construct: JAK2 (a.a. 828-1132); His tag (N); made in house; host or cells: insect cells (baculovirus)
T4 sequence (O60674 828-1132): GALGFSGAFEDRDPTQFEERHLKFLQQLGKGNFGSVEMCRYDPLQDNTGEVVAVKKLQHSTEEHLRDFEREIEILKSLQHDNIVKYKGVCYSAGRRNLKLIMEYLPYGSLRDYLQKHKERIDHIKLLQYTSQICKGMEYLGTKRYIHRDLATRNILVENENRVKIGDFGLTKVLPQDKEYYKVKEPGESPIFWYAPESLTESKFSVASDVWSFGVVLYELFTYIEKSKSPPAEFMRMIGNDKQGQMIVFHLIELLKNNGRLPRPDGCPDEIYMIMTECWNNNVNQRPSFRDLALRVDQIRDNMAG
Put plainly: In vitro JAK kinase assay (HTRF, phosphorylation of a biotinylated peptide), JAK2. The gist of the method:
as §1

Where [5] appears, read: method AA1 (90 μM ATP) or AA2 (1000 μM ATP), not stated per value.
[6] abbreviates: method AA1 (3 μM ATP) or AA2 (1000 μM ATP), not stated per value.
The mark [7] stands for this setting: compound at 500 nM or 1 mM, 90 μM ATP.
The mark [8] stands for this setting: method AA1 (30 μM ATP) or AA2 (1000 μM ATP), not stated per value.
Where [9] appears, read: compound at a concentration of 500 nM or 1 mM (not specified), cells shown as percentage.
Setting [10] is: percentage inhibition of the example compound at a concentration of 500 nM or 1 mM (not specified which).

For orientation: IC50 means the concentration at which inhibition is half-maximal.

TYK2, sequence (P29597 whole entry): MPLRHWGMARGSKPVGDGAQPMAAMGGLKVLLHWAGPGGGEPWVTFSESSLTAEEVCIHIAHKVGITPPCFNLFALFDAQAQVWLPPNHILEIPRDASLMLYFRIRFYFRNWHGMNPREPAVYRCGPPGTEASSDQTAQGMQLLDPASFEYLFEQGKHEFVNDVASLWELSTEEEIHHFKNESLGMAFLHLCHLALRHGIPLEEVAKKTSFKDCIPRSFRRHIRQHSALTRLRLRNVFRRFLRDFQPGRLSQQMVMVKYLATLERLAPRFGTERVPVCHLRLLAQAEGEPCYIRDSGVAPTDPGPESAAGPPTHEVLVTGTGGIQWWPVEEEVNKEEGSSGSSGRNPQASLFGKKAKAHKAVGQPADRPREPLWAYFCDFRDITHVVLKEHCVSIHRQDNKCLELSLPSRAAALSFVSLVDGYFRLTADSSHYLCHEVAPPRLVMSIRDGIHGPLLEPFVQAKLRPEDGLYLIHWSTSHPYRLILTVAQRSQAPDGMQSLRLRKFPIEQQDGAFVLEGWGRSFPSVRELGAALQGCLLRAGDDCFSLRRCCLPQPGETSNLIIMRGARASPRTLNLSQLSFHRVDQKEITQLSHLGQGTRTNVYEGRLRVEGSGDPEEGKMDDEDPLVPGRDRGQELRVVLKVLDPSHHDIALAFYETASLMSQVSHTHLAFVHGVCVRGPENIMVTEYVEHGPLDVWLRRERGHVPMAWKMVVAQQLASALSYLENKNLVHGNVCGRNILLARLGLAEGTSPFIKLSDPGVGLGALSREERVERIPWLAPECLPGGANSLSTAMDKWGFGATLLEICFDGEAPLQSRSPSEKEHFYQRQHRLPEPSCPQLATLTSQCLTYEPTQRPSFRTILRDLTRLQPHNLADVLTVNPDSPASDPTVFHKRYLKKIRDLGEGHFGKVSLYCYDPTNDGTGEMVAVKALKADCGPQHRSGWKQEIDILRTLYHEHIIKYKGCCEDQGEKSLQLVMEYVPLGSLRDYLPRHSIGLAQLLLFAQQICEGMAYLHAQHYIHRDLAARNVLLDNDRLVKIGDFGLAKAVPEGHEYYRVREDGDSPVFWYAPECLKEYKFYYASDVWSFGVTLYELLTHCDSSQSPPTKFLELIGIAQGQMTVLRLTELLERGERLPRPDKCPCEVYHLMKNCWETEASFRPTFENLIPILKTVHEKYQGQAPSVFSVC
T1 sequence (P23458 849-1154): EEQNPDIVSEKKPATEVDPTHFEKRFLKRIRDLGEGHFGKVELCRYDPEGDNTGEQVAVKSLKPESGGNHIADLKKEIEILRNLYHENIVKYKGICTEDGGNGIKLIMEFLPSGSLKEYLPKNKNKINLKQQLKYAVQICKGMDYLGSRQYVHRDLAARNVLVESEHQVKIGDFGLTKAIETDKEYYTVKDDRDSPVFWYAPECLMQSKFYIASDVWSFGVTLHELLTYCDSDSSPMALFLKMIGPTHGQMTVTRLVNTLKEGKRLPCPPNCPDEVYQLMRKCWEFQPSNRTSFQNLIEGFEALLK

Take `CCS(=O)(=O)N1CCC(CC(=O)Nc2ccc3cc2CCc2cncc(c2)Nc2ncc(Cl)c(n2)N3)CC1` [Example A98, N-[6-Chloro-2,4,8,18,22-pentaazatetracyclo[14.3.1.1(3,7).1(9,13)]docosa-1(20),3(22),4,6,9(21),10,12,16,18-nonaen-12-yl]-2-[1-(ethylsulfonyl)piperidin-4-yl]acetamide bis(trifluoroacetate)]: the IC50 in assay [1] (setting [5]) was determined as 1 nM; in assay [2] (setting [6]), 55 nM; at TYK2, 5.3 nM; in assay [4] (setting [8]), 2.7 nM. In addition, the “ALK % of inhibition at a concentration of 500 nM or 1 mM” value (shortened to “ALK % of inhibition”) in assay [3] (setting [7]) amounted to 34%.
With `O=C(Nc1ccc2cc1CCc1cccc(c1)Nc1ncc(Cl)c(n1)N2)NC1CC1` [Example B240, N-[6-Chloro-2,4,8,22-tetraazatetracyclo[14.3.1.1(3,7).1(9,13)]docosa-1(20),3(22),4,6,9(21),10,12,16,18-nonaen-12-yl]-N′-cyclopropylurea trifluoroacetate], the IC50 was 1.5 nM in assay [1] (Table B1), 10 nM in assay [2] (Table B1), 4 nM against TYK2 (Table B1) and 0.74 nM in assay [4] (Table B1). Further, the “ALK % of inhibition” value in assay [3] (setting [9]) was found to be 15%.
As to `NC(=O)COc1cc2cc(c1)Nc1nc(ncc1Cl)Nc1cccc(c1)CC2` [Example A23, 2-{[6-Chloro-2,4,8,22-tetraazatetracyclo[14.3.1.1(3,7).1(9,13)]docosa-1(20),3(22),4,6,9(21),10,12,16,18-nonaen-11-yl]oxy}acetyl)acetamide trifluoroacetate], the IC50 in assay [1] (setting [5]) was determined as 12 nM; in assay [2] (setting [6]), 22 nM; against TYK2, 37 nM; in assay [4] (setting [8]) it was 1 nM. The “ALK % of inhibition” value in assay [3] (setting [7]) was determined as 33%.
Consider `CC(=O)N1CCC(CC(=O)Nc2ccc3cc2CCc2cncc(c2)Nc2ncc(Cl)c(n2)N3)C1` (stereo not shown) [Example A94, 2-(1-Acetylpyrrolidin-3-yl)-N-[6-chloro-2,4,8,18,22-pentaazatetracyclo[14.3.1.1(3,7).1(9,13)]docosa-1(20),3(22),4,6,9(21),10,12,16,18-nonaen-12-yl]acetamide bis(trifluoroacetate)], for which the IC50 in assay [1] (setting [5]) came out at 21 nM; in assay [2] (setting [6]), 86 nM; at TYK2 it was 32 nM; in assay [4] (setting [8]), 17 nM. Moreover, the “ALK % of inhibition” value in assay [3] (setting [7]) turned out to be 26%.
For `N#Cc1cc(F)c(Cl)nc1N1CCC(CC(=O)Nc2ccc3cc2CCc2cncc(c2)Nc2ncc(Cl)c(n2)N3)CC1` [Example A241, 2-[1-(6-Chloro-3-cyano-5-fluoropyridin-2-yl)piperidin-4-yl]-N-[6-chloro-2,4,8,18,22-pentaazatetracyclo[14.3.1.1(3,7).1(9,13)]docosa-1(20),3(22),4,6,9(21),10,12,16,18-nonaen-12-yl]acetamide tris(trifluoroacetate)], in that order: 42 nM, > 400 nM, > 400 nM, > 400 nM and 14%.
With `CCc1ccccc1NC(=O)Nc1ccc2cc1CCc1cccc(c1)Nc1ncc(Cl)c(n1)N2` [Example B97, N-[6-Chloro-2,4,8,22-tetraazatetracyclo[14.3.1.1(3,7).1(9,13)]docosa-1(20), 3(22),4,6,9(21),10,12,16,18-nonaen-12-yl]-N′-(2-ethylphenyl)urea trifluoroacetate], the IC50 in assay [1] (Table B1) worked out at 3.9 nM; in assay [2] (Table B1), 35 nM; against TYK2 (Table B1), 16 nM; in assay [4] (Table B1) it was 9 nM. Besides, in assay [3] (setting [9]), the “ALK % of inhibition” value came to 40%.
As to `O=C(Nc1ccc2cc1CCc1cncc(c1)Nc1ncc(Cl)c(n1)N2)N1CCN2CCCC2C1` (stereo not shown) [Example B315, N-[6-Chloro-2,4,8,18,22-pentaazatetracyclo[14.3.1.1(3,7).1(9,13)]docosa-1(20),3(22),4,6,9(21),10,12,16,18-nonaen-12-yl]hexahydropyrrolo[1,2-a]pyrazine-2(1H)-carboxamide tris(trifluoroacetate)], the IC50 in assay [1] (Table B1) was 47 nM; in assay [2] (Table B1) it was > 400 nM; at TYK2 (Table B1) it was 235 nM; in assay [4] (Table B1) it was > 400 nM. The “ALK % of inhibition” value in assay [3] (setting [10]) is recorded as 50%.
On to `O=C(CC1CCN(S(=O)(=O)c2ccccc2C(F)(F)F)CC1)Nc1ccc2cc1CCc1cncc(c1)Nc1ncc(Cl)c(n1)N2` [Example A224, N-[6-Chloro-2,4,8,18,22-pentaazatetracyclo[14.3.1.1(3,7).1(9,13)]docosa-1(20),3(22),4,6,9(21),10,12,16,18-nonaen-12-yl]-2-(1-{[2-(trifluoromethyl)phenyl]sulfonyl}piperidin-4-yl)acetamide bis(trifluoroacetate)], for which the IC50 in assay [1] (setting [5]) was 14 nM; in assay [2] (setting [6]) it was > 400 nM; on TYK2 it was > 400 nM; in assay [4] (setting [8]) it was > 400 nM. Moreover, the “ALK % of inhibition” value in assay [3] (setting [7]) was found to be 30%.
For `CN(Cc1ccc2cc1CCc1cncc(c1)Nc1ncc(Cl)c(n1)N2)CC1CCN(S(=O)(=O)c2ccccc2C#N)CC1` [Example B340, 2-[(4-{[{[6-Chloro-2,4,8,18,22-pentaazatetracyclo[14.3.1.1(3,7).1(9,13)]docosa-1(20),3(22),4,6,9(21),10,12,16,18-nonaen-12-yl]methyl}(methyl)amino]methyl}piperidin-1-yl)sulfonyl]benzonitrile tris(trifluoroacetate)], the IC50 in assay [1] (Table B1) was 1.2 nM; in assay [2] (Table B1) it was > 400 nM; against TYK2 (Table B1), 180 nM; in assay [4] (Table B1) it was 41 nM. Also, the “ALK % of inhibition” value in assay [3] (setting [10]) amounted to 24%.
Turning to `CN(C)C(=O)N1CCC(CC(=O)Nc2ccc3cc2CCc2cncc(c2)Nc2ncc(Cl)c(n2)N3)CC1` [Example A95, 4-(2-{[6-Chloro-2,4,8,18,22-pentaazatetracyclo[14.3.1.1(3,7).1(9,13)]docosa-1(20),3(22),4,6,9(21),10,12,16,18-nonaen-12-yl]amino}-2-oxoethyl)-N,N-dimethylpiperidine-1-carboxamide bis(trifluoroacetate)], the IC50 in assay [1] (setting [5]) amounted to 9.1 nM; in assay [2] (setting [6]), 160 nM; against TYK2 it was 9 nM; in assay [4] (setting [8]), 23 nM. Also, in assay [3] (setting [7]), the “ALK % of inhibition” value was found to be 18%.
For `N#Cc1ccc(N2CCC(CC(=O)Nc3ccc4cc3CCc3cncc(c3)Nc3ncc(Cl)c(n3)N4)CC2)nc1` [Example A179, N-[6-Chloro-2,4,8,18,22-pentaazatetracyclo[14.3.1.1(3,7).1(9,13)]docosa-1(20),3(22),4,6,9(21),10,12,16,18-nonaen-12-yl]-2-[1-(5-cyanopyridin-2-yl)piperidin-4-yl]acetamide tris(trifluoroacetate)], the IC50 was 18 nM in assay [1] (setting [5]), > 200 nM in assay [2] (setting [6]), > 200 nM on TYK2 and 83 nM in assay [4] (setting [8]). For the same molecule, the “ALK % of inhibition” value in assay [3] (setting [7]) worked out at 43%.
Consider `O=C(Nc1ccc2cc1CCc1cccc(c1)Nc1ncc(Cl)c(n1)N2)c1cnc2ccccc2n1` [Example B72, N-[6-Chloro-2,4,8,22-tetraazatetracyclo[14.3.1.1(3,7).1(9,13)]docosa-1(20), 3(22),4,6,9(21),10,12,16,18-nonaen-12-yl]quinoxaline-2-carboxamide bis(trifluoroacetate)], for which the IC50 in assay [1] (Table B1) is 200 nM; in assay [2] (Table B1), > 500 nM; at TYK2 (Table B1), 77 nM; in assay [4] (Table B1), 55 nM. The “ALK % of inhibition” value in assay [3] (setting [9]) is 12%.
On the same counts, the results for `O=C(NCc1ccncc1)Nc1ccc2cc1CCc1cccc(c1)Nc1ncc(Cl)c(n1)N2` [Example B246, N-[6-Chloro-2,4,8,22-tetraazatetracyclo[14.3.1.1(3,7).1(9,13)]docosa-1(20),3(22),4,6,9(21),10,12,16,18-nonaen-12-yl]-N′-(pyridin-4-ylmethyl)ureabis(trifluoroacetate)] are 12 nM, 21 nM, 3.4 nM, 25 nM and 23%.
Consider `Cc1cc(N2CCOCC2)c2cc1Nc1ncc(Cl)c(n1)Nc1cccc(c1)CC2` [Example A6, 6-Chloro-19-methyl-17-morpholin-4-yl-2,4,8,22-tetraazatetracyclo[14.3.1.1(3,7).1(9,13)]docosa-1(20),3(22),4,6,9(21),10,12,16,18-nonaene trifluoroacetate], for which the IC50 in assay [1] (setting [5]) is 700 nM; in assay [2] (setting [6]) it was 802 nM; at TYK2 it was 76 nM; in assay [3] (90 μM ATP) it was 497 nM; in assay [4] (setting [8]), 8.7 nM.
